{
  "source": "paper PMC12749166",
  "about": "“Fragment-based drug design of a bacterial kinase inhibitor capable of increasing the antibiotic sensitivity of clinical isolates” (Communications Chemistry, 2025)",
  "key": {"P. aeruginosa C0307 [1]": {"test_system": "P. aeruginosa C0307", "assay": "Checkerboard assay of 83 with kanamycin A", "assay_type": "cell-based", "details": "for checkerboard well reading (growth): Supp. Figure 3 B"}, "P. aeruginosa C0307 [2]": {"test_system": "P. aeruginosa C0307", "assay": "Bacterial growth kinetics over 24 h", "assay_type": "cell-based"}, "APH(3’)-IIb": {"molecular_target": "T1, APH(3’)-IIb (Pseudomonas aeruginosa, UniProt Q9HWR2, M95L)", "T1 sequence (Q9HWR2 1-268 M95L)": "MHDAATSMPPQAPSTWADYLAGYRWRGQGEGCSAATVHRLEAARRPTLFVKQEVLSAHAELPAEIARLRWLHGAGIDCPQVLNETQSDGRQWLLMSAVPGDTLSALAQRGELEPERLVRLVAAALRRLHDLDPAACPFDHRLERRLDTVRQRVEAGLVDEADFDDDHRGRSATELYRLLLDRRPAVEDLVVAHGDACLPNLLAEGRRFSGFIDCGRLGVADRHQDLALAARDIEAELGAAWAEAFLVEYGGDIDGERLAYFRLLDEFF", "assay": "biochemical", "description": "Plates were placed in a Clariostar plate reader. […] The initial rate constants (kss) were then measured using a linear regression of the absorbance as a function of time using GraFit software (v. 7.0.3, Erithacus software). Inhibition constants were determined by global fittings of the dependences of kss as a function of ATP and inhibitor concentrations, using a competitive inhibition equation and GraFit software. The standard error of the Ki value was determined in the GraFit software based on the global fitting of four experimental series."}},
  "data": [
    {"molecule": "Clc1cnc2[nH]ccc2c1-c1ccn[nH]1", "note": "[Compound 83]", "values": [
      {"measurement": "checkerboard well reading (growth)", "setting": "P. aeruginosa C0307 [1]; 83 2 µg.mL-1, kanamycin A 2 µg.mL-1", "value": 1.163},
      {"measurement": "checkerboard well reading (growth)", "setting": "P. aeruginosa C0307 [1]; 83 2 µg.mL-1, kanamycin A 4 µg.mL-1", "value": 1.143},
      {"measurement": "checkerboard well reading (growth)", "setting": "P. aeruginosa C0307 [1]; 83 2 µg.mL-1, kanamycin A 8 µg.mL-1", "value": 1.140},
      {"measurement": "checkerboard well reading (growth)", "setting": "P. aeruginosa C0307 [1]; 83 2 µg.mL-1, kanamycin A 16 µg.mL-1", "value": 1.101},
      {"measurement": "checkerboard well reading (growth)", "setting": "P. aeruginosa C0307 [1]; 83 2 µg.mL-1, kanamycin A 32 µg.mL-1", "value": 1.112},
      {"measurement": "checkerboard well reading (growth)", "setting": "P. aeruginosa C0307 [1]; 83 2 µg.mL-1, kanamycin A 64 µg.mL-1", "value": 0.172},
      {"measurement": "checkerboard well reading (growth)", "setting": "P. aeruginosa C0307 [1]; 83 2 µg.mL-1, kanamycin A 128 µg.mL-1", "value": 0.038},
      {"measurement": "checkerboard well reading (growth)", "setting": "P. aeruginosa C0307 [1]; 83 4 µg.mL-1, kanamycin A 0 µg.mL-1", "value": 1.132},
      {"measurement": "checkerboard well reading (growth)", "setting": "P. aeruginosa C0307 [1]; 83 4 µg.mL-1, kanamycin A 2 µg.mL-1", "value": 1.139},
      {"measurement": "checkerboard well reading (growth)", "setting": "P. aeruginosa C0307 [1]; 83 4 µg.mL-1, kanamycin A 4 µg.mL-1", "value": 1.161},
      {"measurement": "checkerboard well reading (growth)", "setting": "P. aeruginosa C0307 [1]; 83 4 µg.mL-1, kanamycin A 8 µg.mL-1", "value": 1.123},
      {"measurement": "checkerboard well reading (growth)", "setting": "P. aeruginosa C0307 [1]; 83 4 µg.mL-1, kanamycin A 16 µg.mL-1", "value": 1.163},
      {"measurement": "checkerboard well reading (growth)", "setting": "P. aeruginosa C0307 [1]; 83 4 µg.mL-1, kanamycin A 32 µg.mL-1", "value": 1.149},
      {"measurement": "checkerboard well reading (growth)", "setting": "P. aeruginosa C0307 [1]; 83 4 µg.mL-1, kanamycin A 64 µg.mL-1", "value": 0.250},
      {"measurement": "checkerboard well reading (growth)", "setting": "P. aeruginosa C0307 [1]; 83 4 µg.mL-1, kanamycin A 128 µg.mL-1", "value": 0.041},
      {"measurement": "checkerboard well reading (growth)", "setting": "P. aeruginosa C0307 [1]; 83 8 µg.mL-1, kanamycin A 0 µg.mL-1", "value": 1.480},
      {"measurement": "checkerboard well reading (growth)", "setting": "P. aeruginosa C0307 [1]; 83 8 µg.mL-1, kanamycin A 2 µg.mL-1", "value": 1.120},
      {"measurement": "checkerboard well reading (growth)", "setting": "P. aeruginosa C0307 [1]; 83 8 µg.mL-1, kanamycin A 4 µg.mL-1", "value": 1.107},
      {"measurement": "checkerboard well reading (growth)", "setting": "P. aeruginosa C0307 [1]; 83 8 µg.mL-1, kanamycin A 8 µg.mL-1", "value": 1.138},
      {"measurement": "checkerboard well reading (growth)", "setting": "P. aeruginosa C0307 [1]; 83 8 µg.mL-1, kanamycin A 16 µg.mL-1", "value": 1.202},
      {"measurement": "checkerboard well reading (growth)", "setting": "P. aeruginosa C0307 [1]; 83 8 µg.mL-1, kanamycin A 32 µg.mL-1", "value": 1.141},
      {"measurement": "checkerboard well reading (growth)", "setting": "P. aeruginosa C0307 [1]; 83 8 µg.mL-1, kanamycin A 64 µg.mL-1", "value": 0.170},
      {"measurement": "checkerboard well reading (growth)", "setting": "P. aeruginosa C0307 [1]; 83 8 µg.mL-1, kanamycin A 128 µg.mL-1", "value": 0.040},
      {"measurement": "checkerboard well reading (growth)", "setting": "P. aeruginosa C0307 [1]; 83 16 µg.mL-1, kanamycin A 0 µg.mL-1", "value": 1.350},
      {"measurement": "checkerboard well reading (growth)", "setting": "P. aeruginosa C0307 [1]; 83 16 µg.mL-1, kanamycin A 2 µg.mL-1", "value": 1.145},
      {"measurement": "checkerboard well reading (growth)", "setting": "P. aeruginosa C0307 [1]; 83 16 µg.mL-1, kanamycin A 4 µg.mL-1", "value": 1.177},
      {"measurement": "checkerboard well reading (growth)", "setting": "P. aeruginosa C0307 [1]; 83 16 µg.mL-1, kanamycin A 8 µg.mL-1", "value": 1.181},
      {"measurement": "checkerboard well reading (growth)", "setting": "P. aeruginosa C0307 [1]; 83 16 µg.mL-1, kanamycin A 16 µg.mL-1", "value": 1.121},
      {"measurement": "checkerboard well reading (growth)", "setting": "P. aeruginosa C0307 [1]; 83 16 µg.mL-1, kanamycin A 32 µg.mL-1", "value": 1.161},
      {"measurement": "checkerboard well reading (growth)", "setting": "P. aeruginosa C0307 [1]; 83 16 µg.mL-1, kanamycin A 64 µg.mL-1", "value": 0.077},
      {"measurement": "checkerboard well reading (growth)", "setting": "P. aeruginosa C0307 [1]; 83 16 µg.mL-1, kanamycin A 128 µg.mL-1", "value": 0.041},
      {"measurement": "checkerboard well reading (growth)", "setting": "P. aeruginosa C0307 [1]; 83 32 µg.mL-1, kanamycin A 0 µg.mL-1", "value": 1.542},
      {"measurement": "checkerboard well reading (growth)", "setting": "P. aeruginosa C0307 [1]; 83 32 µg.mL-1, kanamycin A 2 µg.mL-1", "value": 1.314},
      {"measurement": "checkerboard well reading (growth)", "setting": "P. aeruginosa C0307 [1]; 83 32 µg.mL-1, kanamycin A 4 µg.mL-1", "value": 1.373},
      {"measurement": "checkerboard well reading (growth)", "setting": "P. aeruginosa C0307 [1]; 83 32 µg.mL-1, kanamycin A 8 µg.mL-1", "value": 1.519},
      {"measurement": "checkerboard well reading (growth)", "setting": "P. aeruginosa C0307 [1]; 83 32 µg.mL-1, kanamycin A 16 µg.mL-1", "value": 1.301},
      {"measurement": "checkerboard well reading (growth)", "setting": "P. aeruginosa C0307 [1]; 83 32 µg.mL-1, kanamycin A 32 µg.mL-1", "value": 1.153},
      {"measurement": "checkerboard well reading (growth)", "setting": "P. aeruginosa C0307 [1]; 83 32 µg.mL-1, kanamycin A 64 µg.mL-1", "value": 0.041},
      {"measurement": "checkerboard well reading (growth)", "setting": "P. aeruginosa C0307 [1]; 83 32 µg.mL-1, kanamycin A 128 µg.mL-1", "value": 0.042},
      {"measurement": "checkerboard well reading (growth)", "setting": "P. aeruginosa C0307 [1]; 83 64 µg.mL-1, kanamycin A 0 µg.mL-1", "value": 1.274},
      {"measurement": "checkerboard well reading (growth)", "setting": "P. aeruginosa C0307 [1]; 83 64 µg.mL-1, kanamycin A 2 µg.mL-1", "value": 1.335},
      {"measurement": "checkerboard well reading (growth)", "setting": "P. aeruginosa C0307 [1]; 83 64 µg.mL-1, kanamycin A 4 µg.mL-1", "value": 1.176},
      {"measurement": "checkerboard well reading (growth)", "setting": "P. aeruginosa C0307 [1]; 83 64 µg.mL-1, kanamycin A 8 µg.mL-1", "value": 1.404},
      {"measurement": "checkerboard well reading (growth)", "setting": "P. aeruginosa C0307 [1]; 83 64 µg.mL-1, kanamycin A 16 µg.mL-1", "value": 1.087},
      {"measurement": "checkerboard well reading (growth)", "setting": "P. aeruginosa C0307 [1]; 83 64 µg.mL-1, kanamycin A 32 µg.mL-1", "value": 0.939},
      {"measurement": "checkerboard well reading (growth)", "setting": "P. aeruginosa C0307 [1]; 83 64 µg.mL-1, kanamycin A 64 µg.mL-1", "value": 0.044},
      {"measurement": "checkerboard well reading (growth)", "setting": "P. aeruginosa C0307 [1]; 83 64 µg.mL-1, kanamycin A 128 µg.mL-1", "value": 0.044},
      {"measurement": "checkerboard well reading (growth)", "setting": "P. aeruginosa C0307 [1]; 83 128 µg.mL-1, kanamycin A 0 µg.mL-1", "value": 1.377},
      {"measurement": "checkerboard well reading (growth)", "setting": "P. aeruginosa C0307 [1]; 83 128 µg.mL-1, kanamycin A 2 µg.mL-1", "value": 1.277},
      {"measurement": "checkerboard well reading (growth)", "setting": "P. aeruginosa C0307 [1]; 83 128 µg.mL-1, kanamycin A 4 µg.mL-1", "value": 1.324},
      {"measurement": "checkerboard well reading (growth)", "setting": "P. aeruginosa C0307 [1]; 83 128 µg.mL-1, kanamycin A 8 µg.mL-1", "value": 1.318},
      {"measurement": "checkerboard well reading (growth)", "setting": "P. aeruginosa C0307 [1]; 83 128 µg.mL-1, kanamycin A 16 µg.mL-1", "value": 0.963},
      {"measurement": "checkerboard well reading (growth)", "setting": "P. aeruginosa C0307 [1]; 83 128 µg.mL-1, kanamycin A 32 µg.mL-1", "value": 0.366},
      {"measurement": "checkerboard well reading (growth)", "setting": "P. aeruginosa C0307 [1]; 83 128 µg.mL-1, kanamycin A 64 µg.mL-1", "value": 0.038},
      {"measurement": "checkerboard well reading (growth)", "setting": "P. aeruginosa C0307 [1]; 83 128 µg.mL-1, kanamycin A 128 µg.mL-1", "value": 0.043},
      {"measurement": "Impact of 83 alone on bacterial growth", "setting": "P. aeruginosa C0307 [1]; absence of antibiotics, 83 from 0 to 128 µg mL^−1 (585 µM)", "value": "no impact on bacterial growth"},
      {"measurement": "Delay of the onset of growth", "setting": "P. aeruginosa C0307 [2]; 8 µg mL^−1 kanamycin A, 83 at 500 µM", "value": "around 6 h"},
      {"measurement": "Extension of latency", "setting": "P. aeruginosa C0307 [2]; 16 µg mL^−1 kanamycin A, 500 µM 83", "value": 12, "unit": "h"},
      {"measurement": "Growth", "setting": "P. aeruginosa C0307 [2]; 32 µg mL^−1 kanamycin A, 500 µM 83, 24 h of incubation", "value": "growth did not begin after 24 h of incubation"},
      {"measurement": "Toxicity of 83 alone on bacteria", "setting": "P. aeruginosa C0307 [2]; up to 500 µM (109 µg mL^−1), no kanamycin A, 24 h", "value": "no toxicity"},
      {"measurement": "inhibition at 100 µM", "setting": "APH(3’)-IIb", "value": 91, "unit": "%"}
    ]}
  ]
}
